According to patent US10010614B2, “Derivatives of GLP-1 like peptides, and uses thereof” (Novo Nordisk A/S, priority 2013, dated 2018):
Like-named read-outs stand apart in the source and are kept apart here. Numbered stars: 1 amine (or outer) side, 2 acyl side, 3 side chain; on linkers, the order of the positions; unused ones are H or OH. Square brackets hold non-standard residues; d marks the D form. Side chains are listed from the residue outwards. Peptide text beside a SMILES is read from it. * marks the point of attachment. X3 = O=C(O)CCCCCCCCCCCCCCCCCCC(=O)N[C@@H](CCC(=O)NCCCOCCOCCOCCCNC(=O)COCC(=O)*)C(=O)O; C20 diacid = O=C(O)CCCCCCCCCCCCCCCCCCC(=O)*; γGlu = O=C(O)[C@H](CCC(=O)[*:2])N[*:1]; Desaminohistidyl = O=C(CCc1c[nH]cn1)*; εLys = N[C@@H](CCCCN[*:1])C(=O)[*:2]; Trx = NC[C@H]1CC[C@H](C(=O)O)CC1; AEEA = NCCOCCOCC(=O)O; Aib = CC(C)(N)C(=O)O

How the values were obtained:
human GLP-1 receptor [1] = molecular target: T1, human GLP-1 receptor (Homo sapiens, UniProt P43220); test: In vitro potency, CRE luciferase reporter gene assay in BHK cells expressing the human GLP-1 receptor; assay type: cell-based; conditions: whole cell reporter gene assay, 3 h incubation, no HSA, averages of at least two replicates
T1 construct: expressed in transfected cells; host or cells: membranes prepared from BHK cells (parent line BHKTS13), clone FCW467-12A
T1 sequence (P43220 24-463): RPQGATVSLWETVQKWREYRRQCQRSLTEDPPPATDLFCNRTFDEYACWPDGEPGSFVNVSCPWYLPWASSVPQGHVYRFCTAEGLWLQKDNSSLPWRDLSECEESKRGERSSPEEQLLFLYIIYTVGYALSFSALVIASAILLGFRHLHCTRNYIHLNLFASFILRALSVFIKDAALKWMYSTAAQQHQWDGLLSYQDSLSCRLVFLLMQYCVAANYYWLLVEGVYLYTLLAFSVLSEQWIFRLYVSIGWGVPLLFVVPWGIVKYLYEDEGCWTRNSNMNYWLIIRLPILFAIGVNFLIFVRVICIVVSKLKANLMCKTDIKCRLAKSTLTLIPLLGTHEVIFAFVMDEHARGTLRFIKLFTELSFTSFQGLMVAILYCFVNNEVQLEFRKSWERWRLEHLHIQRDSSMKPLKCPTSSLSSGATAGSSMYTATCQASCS
Procedure: The purpose of this example is to test the activity, or potency, of the GLP-1 derivatives in vitro. The in vitro potency is the measure of human GLP-1 receptor activation in a whole cell assay.
Semaglutide was included for comparison.
In vitro potency was determined by measuring the response of the human GLP-1 receptor in a reporter gene assay. The assay was performed in a stably transfected BHK cell line that expresses the human GLP-1 receptor and contains the DNA for the cAMP response element (CRE) coupled to a promoter and the gene for firefly luciferase (CRE luciferase). When the human GLP-1 receptor is activated it results in the production of cAMP, which in turn results in the luciferase protein being expressed. When assay incubation is completed the luciferase substrate (luciferin) is added and the enzyme converts luciferin to oxyluciferin to produce bioluminescence. The luminescence is measured as the readout for the assay.
The cells used in this assay (clone FCW467-12A/KZ10-1) were BHK cells with BHKTS13 as a parent cell line. The cells were derived from a clone (FCW467-12A) that expresses the human GLP-1 receptor and were established by further transfection with CRE luciferase to obtain the current clone.
The cells were cultured at 5% CO2 in Cell Culture Medium. They were aliquoted and stored in liquid nitrogen. Before each assay an aliquot is taken up and washed twice in PBS before being suspended at the desired concentration in the assay specific buffer. For 96-well plates the suspension was made to give a final concentration of 5×10^3 cells/well.
The following chemicals were used in the assay: Pluronic F-68 (10%) (Gibco 2404), human serum albumin (HSA) (Sigma A9511), ovalbumin (Sigma A5503), DMEM w/o phenol red (Gibco 11880-028), 1 M Hepes (Gibco 15630), Glutamax 100× (Gibco 35050) and steadylite plus (PerkinElmer 6016757).
Cell Culture Medium consisted of DMEM medium with 10% FBS (Fetal Bovine Serum; Invitrogen 16140-071), 1 mg/ml G418 (Invitrogen 15140-122), 240 nM MTX (methotrexate; Sigma M9929) and 1% pen/strep (penicillin/streptomycin; Invitrogen 15140-122).
Assay Medium consisted of DMEM w/o phenol red, 10 mM Hepes and 1× Glutamax. The Assay Buffer consisted of 2% ovalbumin and 0.2% Pluronic F-68 in Assay Medium.
1) Cell stocks were thawed in a 37° C. water bath.
2) Cells were washed three times in PBS.
3) The cells were counted and adjusted to 5×10^3 cells/50 μl (1×10^5 cells/ml) in Assay Medium. A 50 μl aliquot of cells was transferred to each well in the assay plate.
4) Stocks of the test compounds and reference compounds were diluted to a concentration of 0.2 μM in Assay Buffer. Compounds were diluted 10-fold to give the following concentrations: 2×10^−7 M, […]; 2×10^−9 M, 2×10^−10 M, 2×10^−11 M, 2×10^−12 M, 2×10^−13 M, and 2×10^−14 M. 5) A 50 μl aliquot of compound or blank was transferred from the dilution plate to the assay plate. Compounds were tested at the following final concentrations: 1×10^−7 M, 1×10^−8 M; 1×10^−9 M, 1×10^−10 M, 1×10^−11 M, 1×10^−12 M, 1×10^−13 M, and 1×10^−14 M. 6) The assay plate was incubated for 3 h in a 5% CO2 incubator at 37° C. 7) The assay plate was removed from the incubator and allowed to stand at room temperature for 15 min. 8) A 100 μl aliquot of steadylite plus reagent was added to each well of the assay plate (reagent was light sensitive). 9) Each assay plate was covered with aluminum foil to protect it from light and shaken for 30 min at room temperature. 10) Each assay plate was read in a Packard TopCount NXT instrument. Calculations and Results
The data from the TopCount instrument were transferred to GraphPad Prism software. The software performs a non-linear regression (log(agonist) vs response).
A minimum of two replicates was measured for each sample. The reported values are averages of the replicates.

human GLP-1 receptor [2] = molecular target: T1, human GLP-1 receptor; test: GLP-1 receptor binding, competitive binding assay (125I-GLP-1, SPA) on isolated membranes;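 note: test compounds added at a range of concentrations to membranes from cells expressing the human GLP-1 receptor, scored by displacement of labelled ligand, read with WGA SPA beads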
Procedure: The purpose of this example is to test the receptor binding of the GLP-1 derivatives in vitro. The receptor binding is a measure of affinity of a derivative for the human GLP-1 receptor.
In this type of assay a labelled ligand (in this case ^125I-GLP-1) is bound to the receptor. Each derivative is added in a series of concentrations to isolated membranes containing the human GLP-1 receptor and displacement of the labelled ligand is monitored. The receptor binding is reported as the concentration at which half of the labelled ligand is displaced from the receptor, the IC50 value.
The following chemicals were used in the assay: Human serum albumin (HSA) (Sigma A1653), DMEM w/o phenol red (Gibco 11880-028), Pen/strep (Invitrogen 15140-122), G418 (Invitrogen 10131-027), 1 M Hepes (Gibco 15630), EDTA (Invitrogen 15575-038), PBS (Invitrogen 14190-094), fetal calf serum (Invitrogen 16140-071), EGTA, MgCl2 (Merck 1.05832.1000), Tween 20 (Amresco 0850C335), SPA particles (wheat germ agglutinin (WGA) SPA beads, Perkin Elmer RPNQ0001), [^125I]-GLP-1]-(7-36)NH2 (produced in-house), OptiPlate™-96 (Packard 6005290).
Buffer 1 consisted of 20 mM Na-HEPES plus 10 mM EDTA and pH was adjusted to 7.4. Buffer 2 consisted of 20 mM Na-HEPES plus 0.1 mM EDTA and pH was adjusted to 7.4. Assay buffer consisted of 50 mM HEPES supplemented with 5 mM EGTA, 5 mM MgCl2, 0.005% Tween 20 and pH was adjusted to 7.4. An 8% albumin stock consisted of HSA dissolved at 8% (w/v) in assay buffer. An 0.02% albumin stock consisted of HSA dissolved at 0.02% (w/v) in assay buffer.
The cells express the human GLP-1 receptor.
The cells were grown at 5% CO2 in DMEM, 10% fetal calf serum, 1% Pen/Strep (Penicillin/Streptomycin) and 1.0 mg/ml of the selection marker G418.
To make a membrane preparation the cells were grown to approximately 80% confluence. The cells were washed twice in phosphate-buffered saline and harvested. The cells were pelleted using a brief centrifugation and the cell pellet was kept on ice. The cell pellet was homogenised with ULTRA-THURRAX™ dispersing instrument for 20-30 seconds in a suitable amount of buffer 1 (e.g., 10 ml). The homogenate was centrifuged for 15 minutes. The pellet was re-suspended (homogenised) in 10 ml buffer 2 and centrifuged. This step was repeated once more. The resulting pellet was re-suspended in buffer 2 and the protein concentration was determined. The membranes were aliquoted and stored at minus 80° C.
For the receptor binding assay in the presence of low HSA (0.005%) 50 μl of the assay buffer was added to each well of an assay plate.
For the receptor binding assay in the presence of high HSA (2%) 50 μl of the 8% albumin stock was added to each well of an assay plate.
Cell membrane aliquots were thawed and diluted to their working concentration. Fifty μl were added to each well in the assay plate.
WGA SPA beads were suspended in assay buffer at 20 mg/ml. The suspension was diluted to 10 mg/ml in assay buffer just prior to addition to the assay plate. Fifty μl were added to each well in the assay plate.
The incubation was started by adding 25 μl of 480 pM solution of [^125I]-GLP-1]-(7-36)NH2 to each well of the assay plate. A 25 μl aliquot was reserved for measuring total counts/well.
The assay plate was incubated for 2 h at 30° C.
The assay plate was centrifuged for 10 min.
The assay plate was read in a Packard TopCount NXT instrument.
The data from the TopCount instrument were transferred to GraphPad Prism software. The software averaged the values for the replicates and performed a non-linear regression. IC50 values were calculated by the software and reported in nM.

[3] = high serum albumin (2.0% HSA final assay concentration), read-out: High HSA IC50
[4] = low serum albumin (max. 0.001% final assay concentration), read-out: Low HSA IC50

SMILES	EC50 (human GLP-1 receptor [1]) [pM]	IC50 (human GLP-1 receptor [2]; [3]) [nM]	IC50 (human GLP-1 receptor [2]; [4]) [nM]	IC50 (human GLP-1 receptor [2]; High HSA IC50 (nM), high serum albumin (2.0% HSA final assay concentration)) [nM]	IC50 (human GLP-1 receptor [2]; Low HSA IC50 (nM), low serum albumin (max. 0.001% final assay concentration)) [nM]
CC[C@H](C)[C@H](NC(=O)[C@H](Cc1ccccc1)NC(=O)[C@H](CCC(=O)O)NC(=O)[C@H](CCCNC(=N)N)NC(=O)[C@H](C)NC(=O)[C@H](C)NC(=O)[C@H](CCC(N)=O)NC(=O)[C@H](CCC(=O)O)NC(=O)[C@H](CCC(=O)O)NC(=O)[C@H](CC(C)C)NC(=O)[C@H](Cc1ccc(O)cc1)NC(=O)[C@H](CO)NC(=O)[C@H](CO)NC(=O)[C@@H](NC(=O)[C@H](CC(=O)O)NC(=O)[C@H](CO)NC(=O)[C@@H](NC(=O)[C@H](Cc1ccccc1)NC(=O)[C@@H](NC(=O)CNC(=O)[C@H](CCC(=O)O)NC(=O)C(C)(C)NC(=O)[C@@H](N)Cc1c[nH]cn1)[C@@H](C)O)[C@@H](C)O)C(C)C)C(=O)N[C@@H](C)C(=O)N[C@@H](Cc1c[nH]c2ccccc12)C(=O)N[C@@H](CC(C)C)C(=O)N[C@H](C(=O)N[C@@H](CCCNC(=N)N)C(=O)NCC(=O)N[C@@H](CCCNC(=N)N)C(=O)NCC(=O)N[C@@H](CCCCNC(=O)COCCOCCNC(=O)COCCOCCNC(=O)COCCOCCNC(=O)COCCOCCNC(=O)COCCOCCNC(=O)[C@@H](N)CCCCNC(=O)[C@@H](N)CCCCNC(=O)CCCCCCCCCCCCCCCCCCC(=O)O)C(=O)NCC(=O)NCC(=O)N[C@@H](CO)C(=O)N[C@@H](CCCCNC(=O)COCCOCCNC(=O)COCCOCCNC(=O)COCCOCCNC(=O)COCCOCCNC(=O)COCCOCCNC(=O)[C@@H](N)CCCCNC(=O)[C@@H](N)CCCCNC(=O)CCCCCCCCCCCCCCCCCCC(=O)O)C(=O)O)C(C)C [Example 27] (H-H[Aib]EGTFTSDVSSYLEEQAAREFIAWLVRGRGK([AEEA-AEEA-AEEA-AEEA-AEEA-εLys-εLys-C20 diacid])GGSK([AEEA-AEEA-AEEA-AEEA-AEEA-εLys-εLys-C20 diacid])-OH; N-terminus and C-terminus assumed)	4.4	30	0.08		
CC[C@H](C)[C@H](NC(=O)[C@H](Cc1ccccc1)NC(=O)[C@H](CCC(=O)O)NC(=O)[C@H](CCCNC(=N)N)NC(=O)[C@H](C)NC(=O)[C@H](C)NC(=O)[C@H](CCC(N)=O)NC(=O)[C@H](CCC(=O)O)NC(=O)[C@H](CCC(=O)O)NC(=O)[C@H](CC(C)C)NC(=O)[C@H](Cc1ccc(O)cc1)NC(=O)[C@H](CO)NC(=O)[C@H](CO)NC(=O)[C@@H](NC(=O)[C@H](CC(=O)O)NC(=O)[C@H](CO)NC(=O)[C@@H](NC(=O)[C@H](Cc1ccccc1)NC(=O)[C@@H](NC(=O)CNC(=O)[C@H](CCC(=O)O)NC(=O)C(C)(C)NC(=O)[C@@H](N)Cc1c[nH]cn1)[C@@H](C)O)[C@@H](C)O)C(C)C)C(=O)N[C@@H](C)C(=O)N[C@@H](Cc1c[nH]c2ccccc12)C(=O)N[C@@H](CC(C)C)C(=O)N[C@H](C(=O)N[C@@H](CCCNC(=N)N)C(=O)NCC(=O)N[C@@H](CCCNC(=N)N)C(=O)NCC(=O)N[C@@H](CCCCNC(=O)COCC(=O)NCCCOCCOCCOCCCNC(=O)CC[C@H](NC(=O)CCCCCCCCCCCCCCCCCCC(=O)O)C(=O)O)C(=O)NCC(=O)NCC(=O)N[C@@H](CO)C(=O)N[C@@H](CCCCNC(=O)COCC(=O)NCCCOCCOCCOCCCNC(=O)CC[C@H](NC(=O)CCCCCCCCCCCCCCCCCCC(=O)O)C(=O)O)C(=O)O)C(C)C [Example 22, N{Alpha}([Aib8,Glu22,Arg26,Arg34]-GLP-1-(7-37)-peptidyl)-N{Epsilon}[2-[2-[3-[2-[2-[3-[[(4S)-4-carboxy-4-(19-carboxynonadecanoylamino)butanoyl]amino]propoxy]ethoxy]ethoxy]propylamino]-2-oxoethoxy]acetyl]Lys-Gly-Gly-Ser-N{Epsilon}[2-[2-[3-[2-[2-[3-[[(4S)-4-carboxy-4-(19-carboxynonadecanoylamino)butanoyl]amino]propoxy]ethoxy]ethoxy]propylamino]-2-oxoethoxy]acetyl]Lys] (H-H[Aib]EGTFTSDVSSYLEEQAAREFIAWLVRGRGK(X3)GGSK(X3)-OH; N-terminus and C-terminus assumed)	10	194	0.82		
CC[C@H](C)[C@H](NC(=O)[C@H](Cc1ccccc1)NC(=O)[C@H](CCC(=O)O)NC(=O)[C@H](CCCNC(=N)N)NC(=O)[C@H](C)NC(=O)[C@H](C)NC(=O)[C@H](CCC(N)=O)NC(=O)[C@H](CCC(=O)O)NC(=O)[C@H](CCC(=O)O)NC(=O)[C@H](CC(C)C)NC(=O)[C@H](Cc1ccc(O)cc1)NC(=O)[C@H](CO)NC(=O)[C@H](CO)NC(=O)[C@@H](NC(=O)[C@H](CC(=O)O)NC(=O)[C@H](CO)NC(=O)[C@@H](NC(=O)[C@H](Cc1ccccc1)NC(=O)[C@@H](NC(=O)CNC(=O)[C@H](CCC(=O)O)NC(=O)C(C)(C)NC(=O)CCc1cnc[nH]1)[C@@H](C)O)[C@@H](C)O)C(C)C)C(=O)N[C@@H](C)C(=O)N[C@@H](Cc1c[nH]c2ccccc12)C(=O)N[C@@H](CC(C)C)C(=O)N[C@H](C(=O)N[C@@H](CCCNC(=N)N)C(=O)NCC(=O)N[C@@H](CCCNC(=N)N)C(=O)NCC(=O)N[C@@H](CCCCNC(=O)COCCOCCNC(=O)COCCOCCNC(=O)COCCOCCNC(=O)COCCOCCNC(=O)CC[C@H](NC(=O)CCCCCCCCCCCCCCCCCCC(=O)O)C(=O)O)C(=O)NCC(=O)NCC(=O)N[C@@H](CO)C(=O)N[C@@H](CCCCNC(=O)COCCOCCNC(=O)COCCOCCNC(=O)COCCOCCNC(=O)COCCOCCNC(=O)CC[C@H](NC(=O)CCCCCCCCCCCCCCCCCCC(=O)O)C(=O)O)C(=O)O)C(C)C [Example 20] (Desaminohistidyl-[Aib]EGTFTSDVSSYLEEQAAREFIAWLVRGRGK([AEEA-AEEA-AEEA-AEEA-γGlu-C20 diacid])GGSK([AEEA-AEEA-AEEA-AEEA-γGlu-C20 diacid])-OH; C-terminus assumed)	8.4	270	4.1		
CC[C@H](C)[C@H](NC(=O)[C@H](Cc1ccccc1)NC(=O)[C@H](CCC(=O)O)NC(=O)[C@H](CCCNC(=N)N)NC(=O)[C@H](C)NC(=O)[C@H](C)NC(=O)[C@H](CCC(N)=O)NC(=O)[C@H](CCC(=O)O)NC(=O)[C@H](CCC(=O)O)NC(=O)[C@H](CC(C)C)NC(=O)[C@H](Cc1ccc(O)cc1)NC(=O)[C@H](CO)NC(=O)[C@H](CO)NC(=O)[C@@H](NC(=O)[C@H](CC(=O)O)NC(=O)[C@H](CO)NC(=O)[C@@H](NC(=O)[C@H](Cc1ccccc1)NC(=O)[C@@H](NC(=O)CNC(=O)[C@H](CCC(=O)O)NC(=O)C(C)(C)NC(=O)[C@@H](N)Cc1c[nH]cn1)[C@@H](C)O)[C@@H](C)O)C(C)C)C(=O)N[C@@H](C)C(=O)N[C@@H](Cc1c[nH]c2ccccc12)C(=O)N[C@@H](CC(C)C)C(=O)N[C@H](C(=O)N[C@@H](CCCNC(=N)N)C(=O)NCC(=O)N[C@@H](CCCNC(=N)N)C(=O)NCC(=O)N[C@@H](CCCCNC(=O)COCCOCCNC(=O)COCCOCCNC(=O)CC[C@H](NC(=O)[C@H]1CC[C@H](CNC(=O)CCCCCCCCCCCCCCCCCCC(=O)O)CC1)C(=O)O)C(=O)N[C@@H](CO)C(=O)N[C@@H](C)C(=O)N[C@@H](CCC(=O)O)C(=O)N[C@@H](CCCCNC(=O)COCCOCCNC(=O)COCCOCCNC(=O)CC[C@H](NC(=O)[C@H]1CC[C@H](CNC(=O)CCCCCCCCCCCCCCCCCCC(=O)O)CC1)C(=O)O)C(=O)O)C(C)C [Example 13] (H-H[Aib]EGTFTSDVSSYLEEQAAREFIAWLVRGRGK([AEEA-AEEA-γGlu-Trx-C20 diacid])SAEK([AEEA-AEEA-γGlu-Trx-C20 diacid])-OH)	24			160	1.4
